Drawing on ChEMBL document CHEMBL1146734, “Estrogen receptor ligands. Part 3: The SAR of dihydrobenzoxathiin SERMs” (Bioorg Med Chem Lett, 2004), this text covers IC50 for 14 molecules.

In experiment [1] the target is Estrogen receptor beta (Homo sapiens, UniProt Q92731). The experiment in a line: Binding affinity towards human estrogen receptor beta (ERbeta).
Experiment [2] deals with T1, Estrogen receptor (Homo sapiens, UniProt P03372).
T1 sequence (P03372 whole entry): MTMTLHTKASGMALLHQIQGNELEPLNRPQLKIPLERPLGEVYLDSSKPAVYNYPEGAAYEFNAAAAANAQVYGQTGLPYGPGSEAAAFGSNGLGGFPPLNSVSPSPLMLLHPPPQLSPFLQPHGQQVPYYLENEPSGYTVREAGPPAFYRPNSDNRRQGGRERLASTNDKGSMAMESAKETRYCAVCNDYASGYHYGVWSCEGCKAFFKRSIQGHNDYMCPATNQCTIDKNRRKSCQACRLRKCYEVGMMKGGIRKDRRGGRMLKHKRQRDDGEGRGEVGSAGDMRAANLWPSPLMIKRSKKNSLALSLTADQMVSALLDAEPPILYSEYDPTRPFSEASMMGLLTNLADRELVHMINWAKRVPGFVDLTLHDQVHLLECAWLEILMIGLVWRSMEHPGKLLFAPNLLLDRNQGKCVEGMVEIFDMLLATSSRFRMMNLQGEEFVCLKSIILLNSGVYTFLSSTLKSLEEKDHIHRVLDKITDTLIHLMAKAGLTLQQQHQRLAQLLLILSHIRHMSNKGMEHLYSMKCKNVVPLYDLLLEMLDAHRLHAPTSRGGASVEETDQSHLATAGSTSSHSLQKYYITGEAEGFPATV
Put plainly: Binding affinity towards human estrogen receptor alpha.

Experiment [3] addresses T2, Estrogen receptor (Homo sapiens, UniProt Q92731+P03372). Put plainly: In vivo inhibition of human ERalpha/ERbeta co-expressed in HEK 293 cells. The note with it: hek293. It is filed as functional.
Experiment [4] deals with T2, Estrogen receptor. The experiment in a line: In vitro inhibition of human ERalpha/ERbeta expressed in HEK 293 cells; 76/322. The note with it: hek293.
The target in experiment [5] is T2, Estrogen receptor. The experiment in a line: […] inhibition of human ERalpha/ERbeta co-expressed in HEK 293 cells; 137/1375. It counts as functional. The note with it: hek293.
The target in experiment [6] is T2, Estrogen receptor. Put plainly: […] inhibition of human ERalpha/ERbeta co-expressed in HEK 293 cells; 127/3316. It counts as functional. The note with it: hek293.
The target of experiment [7] is T2, Estrogen receptor. The experiment in a line: […] inhibition of human ERalpha/ERbeta co-expressed in HEK 293 cells; 21/840. It is filed as functional. The note with it: hek293.

Chain of Estrogen receptor beta (Q92731 whole entry): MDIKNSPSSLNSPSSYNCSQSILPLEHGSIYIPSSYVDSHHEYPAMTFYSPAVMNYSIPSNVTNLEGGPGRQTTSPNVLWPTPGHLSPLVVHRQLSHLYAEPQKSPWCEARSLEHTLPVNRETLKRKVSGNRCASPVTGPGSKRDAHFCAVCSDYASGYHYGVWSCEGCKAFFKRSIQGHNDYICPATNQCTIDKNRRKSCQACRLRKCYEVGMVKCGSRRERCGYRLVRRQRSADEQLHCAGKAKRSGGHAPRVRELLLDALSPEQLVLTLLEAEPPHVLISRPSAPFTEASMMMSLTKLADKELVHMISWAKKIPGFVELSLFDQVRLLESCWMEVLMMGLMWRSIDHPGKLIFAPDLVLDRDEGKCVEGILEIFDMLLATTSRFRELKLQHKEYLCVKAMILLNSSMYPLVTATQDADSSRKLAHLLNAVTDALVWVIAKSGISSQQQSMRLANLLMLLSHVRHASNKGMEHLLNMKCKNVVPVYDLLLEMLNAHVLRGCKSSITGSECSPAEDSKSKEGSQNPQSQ

For orientation: IC50 means the concentration that inhibits the measured activity by half. Lower therefore signals greater potency in that assay. With `Oc1ccc2c(c1)S[C@H](Cc1ccccc1)[C@H](c1ccc(OCCN3CCCCC3)cc1)O2`, the IC50 in experiment [1] came to 0.06 µM; in experiment [2] it was 0.0074 µM; in experiment [3], 0.061 µM.

As to `Oc1ccc2c(c1)S[C@H](CC1CCCC1)[C@H](c1ccc(OCCN3CCCCC3)cc1)O2`, the half-maximal inhibitory concentration (IC50) in experiment [1] worked out at 0.034 µM; in experiment [2] it was 0.003 µM.

`CC(C)C[C@H]1Sc2cc(O)ccc2O[C@H]1c1ccc(OCCN2CCCCC2)cc1`: the IC50 in experiment [1] worked out at 0.038 µM; in experiment [2], 0.003 µM; in experiment [4] it was 0.076 µM.

Turning to `Oc1ccc2c(c1)S[C@H](c1cccs1)[C@H](c1ccc(OCCN3CCCCC3)cc1)O2`, the concentration for half-maximal inhibition (IC50) is 0.162 µM in experiment [1] and 0.0088 µM in experiment [2].

For the molecule `Oc1ccc(C[C@H]2Sc3cc(O)ccc3O[C@H]2c2ccc(OCCN3CCCCC3)cc2)cc1`, the IC50 in experiment [1] amounted to 0.308 µM; in experiment [2], 0.0027 µM; in experiment [3], 0.014 µM.

On to `CC(C)(C)[C@H]1Sc2cc(O)ccc2O[C@H]1c1ccc(OCCN2CCCCC2)cc1`, for which the IC50 was determined as 0.043 µM in experiment [1], 0.011 µM in experiment [2] and 0.137 µM in experiment [5].

With `Oc1ccc2c(c1)S[C@H](C1CCCCC1)[C@H](c1ccc(OCCN3CCCCC3)cc1)O2`, the IC50 in experiment [1] was determined as 0.016 µM; in experiment [2] it was 0.0026 µM.

For `Oc1ccc2c(c1)S[C@H](c1ccco1)[C@H](c1ccc(OCCN3CCCCC3)cc1)O2`, the IC50 in experiment [1] is 0.361 µM; in experiment [2], 0.035 µM.

As for `CC(C)[C@H]1Sc2cc(O)ccc2O[C@H]1c1ccc(OCCN2CCCCC2)cc1`, the half-maximal inhibitory concentration (IC50) came to 0.105 µM in experiment [1], 0.007 µM in experiment [2] and 0.127 µM in experiment [6].

As for `Oc1ccc2c(c1)S[C@H](c1cccnc1)[C@H](c1ccc(OCCN3CCCCC3)cc1)O2`, the half-maximal inhibitory concentration (IC50) in experiment [1] is 8.25 µM; in experiment [2] it was 0.542 µM.

Consider `Oc1ccc2c(c1)S[C@H](CC1CCCCC1)[C@H](c1ccc(OCCN3CCCCC3)cc1)O2`, for which the figures for the IC50 in experiment [1] and in experiment [2] were 0.04 µM and 0.0039 µM, respectively.

For the molecule `Oc1ccc2c(c1)S[C@H](c1ccncc1)[C@H](c1ccc(OCCN3CCCCC3)cc1)O2`, the half-maximal inhibitory concentration (IC50) in experiment [1] was determined as 8.2 µM; in experiment [2], 0.49 µM.

`Oc1ccc2c(c1)S[C@H](C1CCCCCC1)[C@H](c1ccc(OCCN3CCCCC3)cc1)O2`: the half-maximal inhibitory concentration (IC50) was 0.028 µM in experiment [1], 0.0075 µM in experiment [2] and 0.021 µM in experiment [7].

Take `Oc1ccc2c(c1)S[C@H](C1CCCC1)[C@H](c1ccc(OCCN3CCCCC3)cc1)O2`: the values for the IC50 in experiment [1] and in experiment [2] were 0.031 µM and 0.0025 µM, respectively.
